pIC50: −log10 of the molar value.
What was measured:
[1] = target: T1, 15-lipoxygenase (Homo sapiens, UniProt P16050); assay: 15-lipoxygenase inhibition assay; format: biochemical; settings: 25 μM arachidonic acid, 30 °C, 5 min
T1 sequence (P16050 1-662): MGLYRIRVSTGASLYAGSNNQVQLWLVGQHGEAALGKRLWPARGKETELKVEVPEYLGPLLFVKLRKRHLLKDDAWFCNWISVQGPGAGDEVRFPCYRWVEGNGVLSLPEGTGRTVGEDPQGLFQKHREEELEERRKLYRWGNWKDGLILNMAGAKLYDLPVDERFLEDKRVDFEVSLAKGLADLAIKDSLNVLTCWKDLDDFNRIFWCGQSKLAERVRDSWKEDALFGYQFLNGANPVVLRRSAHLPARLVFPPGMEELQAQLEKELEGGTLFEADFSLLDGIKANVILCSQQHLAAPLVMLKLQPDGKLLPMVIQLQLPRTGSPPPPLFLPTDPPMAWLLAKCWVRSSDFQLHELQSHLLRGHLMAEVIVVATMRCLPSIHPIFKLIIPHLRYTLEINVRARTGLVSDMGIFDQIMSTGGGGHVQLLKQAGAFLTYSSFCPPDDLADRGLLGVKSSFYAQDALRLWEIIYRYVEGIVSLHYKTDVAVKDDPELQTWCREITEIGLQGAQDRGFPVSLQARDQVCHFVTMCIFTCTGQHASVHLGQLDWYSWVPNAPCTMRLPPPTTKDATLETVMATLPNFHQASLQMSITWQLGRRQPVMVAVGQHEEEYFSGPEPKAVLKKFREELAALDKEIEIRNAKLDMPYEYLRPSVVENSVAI
Description: (§1) Figure 6 Inhibition of various lipoxygenase and cyclooxygenase activities by liguroside A. Reactions were carried out under the standard conditions in the presence of liguroside A at various concentrations and the products were quantified, using a reverse-phase HPLC. Relative enzyme activities of the 15-lipoxygenase-1 (closed circles), platelet-type 12-lipoxygenase (open circles), 5-lipoxygenase (open lozenges), cyclooxygenase-1 (open triangles), and cyclooxygenase-2 (closed triangles), as compared to the activity without inhibitors, are shown.
(§2) The lipoxygenase and cyclooxygenase reactions were carried out, as described previously. […] The products extracted with ice-cold diethyl ether were analyzed by a reverse-phase HPLC, using a Waters Alliance system equipped with a COSMOSIL 5C18-MS-II column (5-μm particle, 250 × 4.6 mm i.d., Nacalai), with a solvent system of methanol-water-acetic acid (80:20:0.01, v/v), at a flow rate of 1 mL/min, as previously described. Absorption at 235 nm was continuously monitored, using a Waters 2489 UV/Visible detector (Waters, Milford, MA, USA). Protein concentration was determined using a bicinchoninic acid protein assay kit (Thermo Fisher Scientific, Waltham, MA, USA), with bovine serum albumin as a standard.

[2] = target: cyclooxygenase-1 (Homo sapiens, UniProt P23219); assay: cyclooxygenase-1 inhibition assay; format: biochemical; settings: 25 μM linoleic acid, 24 °C, 5 min
Sequence of cyclooxygenase-1 (P23219 24-599, species assumed): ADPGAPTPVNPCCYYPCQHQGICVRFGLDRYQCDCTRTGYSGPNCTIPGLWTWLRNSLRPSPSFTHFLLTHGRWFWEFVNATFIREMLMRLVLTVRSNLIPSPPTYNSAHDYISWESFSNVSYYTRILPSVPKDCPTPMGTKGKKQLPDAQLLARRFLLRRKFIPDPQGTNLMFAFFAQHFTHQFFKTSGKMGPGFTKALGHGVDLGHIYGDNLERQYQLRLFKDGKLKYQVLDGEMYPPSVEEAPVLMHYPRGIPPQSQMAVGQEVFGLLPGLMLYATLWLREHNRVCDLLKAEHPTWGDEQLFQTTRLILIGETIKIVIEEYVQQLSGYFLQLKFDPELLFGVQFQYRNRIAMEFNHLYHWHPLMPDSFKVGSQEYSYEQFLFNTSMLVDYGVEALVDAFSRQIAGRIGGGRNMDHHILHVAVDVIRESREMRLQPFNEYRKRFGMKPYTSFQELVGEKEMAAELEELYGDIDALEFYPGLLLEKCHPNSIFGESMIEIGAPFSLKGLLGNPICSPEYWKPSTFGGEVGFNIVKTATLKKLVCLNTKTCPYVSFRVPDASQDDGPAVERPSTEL
Description: as §1, §2

[3] = target: T2, cyclooxygenase-2 (Homo sapiens, UniProt P35354); assay: cyclooxygenase-2 inhibition assay; format: biochemical; settings: 25 μM linoleic acid, 24 °C, 5 min
T2 sequence (P35354 18-604): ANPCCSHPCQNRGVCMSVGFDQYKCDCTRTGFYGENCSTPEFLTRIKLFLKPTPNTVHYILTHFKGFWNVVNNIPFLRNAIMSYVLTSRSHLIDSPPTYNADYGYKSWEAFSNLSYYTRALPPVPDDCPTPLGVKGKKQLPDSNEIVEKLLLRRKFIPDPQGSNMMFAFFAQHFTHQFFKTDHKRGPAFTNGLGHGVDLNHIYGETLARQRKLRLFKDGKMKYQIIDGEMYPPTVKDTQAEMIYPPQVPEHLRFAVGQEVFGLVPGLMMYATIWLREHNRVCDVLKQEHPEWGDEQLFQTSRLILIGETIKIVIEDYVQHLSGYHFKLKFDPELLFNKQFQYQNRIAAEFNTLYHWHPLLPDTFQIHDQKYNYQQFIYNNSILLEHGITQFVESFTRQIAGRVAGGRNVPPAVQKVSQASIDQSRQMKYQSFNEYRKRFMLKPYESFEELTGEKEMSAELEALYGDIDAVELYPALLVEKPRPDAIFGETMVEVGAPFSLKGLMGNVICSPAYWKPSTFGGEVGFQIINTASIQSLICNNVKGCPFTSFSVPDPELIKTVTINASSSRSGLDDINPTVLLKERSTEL
Description: as §1, §2

[4] = target: T3, platelet-type 12-lipoxygenase (Homo sapiens, UniProt P18054); assay: platelet-type 12-lipoxygenase inhibition assay; format: biochemical; settings: up to 100 μM; 30 min at 37 °C
T3 sequence (P18054 1-663): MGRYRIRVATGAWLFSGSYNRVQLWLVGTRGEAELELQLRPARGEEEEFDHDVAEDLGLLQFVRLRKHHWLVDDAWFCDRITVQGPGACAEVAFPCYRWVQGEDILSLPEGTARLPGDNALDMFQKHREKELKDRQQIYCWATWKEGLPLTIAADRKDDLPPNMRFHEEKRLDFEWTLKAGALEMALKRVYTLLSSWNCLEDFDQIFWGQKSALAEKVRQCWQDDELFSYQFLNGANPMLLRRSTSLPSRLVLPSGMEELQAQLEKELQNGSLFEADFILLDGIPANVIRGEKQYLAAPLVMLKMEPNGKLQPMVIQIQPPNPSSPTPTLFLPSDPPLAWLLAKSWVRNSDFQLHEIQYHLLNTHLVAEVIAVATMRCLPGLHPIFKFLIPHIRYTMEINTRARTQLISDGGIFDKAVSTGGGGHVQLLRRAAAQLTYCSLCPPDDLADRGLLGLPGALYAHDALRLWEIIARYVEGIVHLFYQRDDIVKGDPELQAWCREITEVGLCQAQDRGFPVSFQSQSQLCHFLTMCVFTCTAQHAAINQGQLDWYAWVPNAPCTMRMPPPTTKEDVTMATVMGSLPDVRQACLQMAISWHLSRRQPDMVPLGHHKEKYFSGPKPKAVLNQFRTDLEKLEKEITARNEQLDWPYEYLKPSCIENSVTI
Description: as §1, §2

[5] = target: T4, leukocyte-type 12-lipoxygenase (Mus musculus, UniProt P39654); parameters: method as in PMID 23579993; settings: previous report; read-out: IC50, inhibition of leukocyte-type 12-lipoxygenase activity; cited from earlier work
T4 sequence (P39654 1-663): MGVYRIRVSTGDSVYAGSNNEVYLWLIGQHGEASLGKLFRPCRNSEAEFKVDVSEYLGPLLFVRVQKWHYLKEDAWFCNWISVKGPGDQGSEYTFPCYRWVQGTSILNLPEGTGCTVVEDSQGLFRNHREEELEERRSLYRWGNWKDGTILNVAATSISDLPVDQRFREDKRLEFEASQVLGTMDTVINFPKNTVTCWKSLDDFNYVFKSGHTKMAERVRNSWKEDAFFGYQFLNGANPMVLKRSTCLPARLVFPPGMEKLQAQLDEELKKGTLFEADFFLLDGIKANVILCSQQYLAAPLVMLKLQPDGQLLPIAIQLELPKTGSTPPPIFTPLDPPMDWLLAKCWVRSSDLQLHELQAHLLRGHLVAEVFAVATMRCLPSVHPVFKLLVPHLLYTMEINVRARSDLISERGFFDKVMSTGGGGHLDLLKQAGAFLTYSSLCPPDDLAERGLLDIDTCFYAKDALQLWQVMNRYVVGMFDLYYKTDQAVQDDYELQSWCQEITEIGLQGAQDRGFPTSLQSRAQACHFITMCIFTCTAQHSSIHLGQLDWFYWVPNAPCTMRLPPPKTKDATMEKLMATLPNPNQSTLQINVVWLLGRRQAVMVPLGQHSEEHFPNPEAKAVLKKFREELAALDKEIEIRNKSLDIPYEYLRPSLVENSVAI

C/C(=C\CO[C@@H]1O[C@H](CO)[C@@H](OC(=O)/C=C/c2ccc(O)cc2)[C@H](O[C@@H]2O[C@@H](C)[C@H](O)[C@@H](O)[C@H]2O)[C@H]1O)C/C=C/C(C)(C)OO [liguroside A] showed a pIC50 [1] of 5.49, a pIC50 [2] of 4.67 and a pIC50 [3] of 4.77. For the same compound, the “effect on platelet-type 12-lipoxygenase activity (in words)” value [4] was “almost unaffected” and the pIC50 [5] was 5.77.

From article PMC6358863, “Involvement of the Hydroperoxy Group in the Irreversible Inhibition of Leukocyte-Type 12-Lipoxygenase by Monoterpene Glycosides Contained in the Qing Shan Lu Shui Tea” (Molecules, 2019)
